# In PubChem BioAssay (NCI):
#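 These data come from cells grown in 96-well plates and exposed to compound for 48 hours at five concentrations. TGI is the concentration that stops growth completely.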
# Key:
# Test in all cases: inhibition of tumour cell growth, NCI panel, 48 h
# HCT-15 colon = tested on: HCT-15 colon
# ACHN renal = tested on: ACHN renal
# KM12 colon = tested on: KM12 colon
# T-47D breast = tested on: T-47D breast
# UO-31 renal = tested on: UO-31 renal
# PC-3 prostate = tested on: PC-3 prostate
# HCC-2998 colon = tested on: HCC-2998 colon
# SNB-75 CNS = tested on: SNB-75 CNS
# BT-549 breast = tested on: BT-549 breast
# NCI-H226 lung = tested on: NCI-H226 lung
# UACC-257 melanoma = tested on: UACC-257 melanoma
# SK-MEL-28 melanoma = tested on: SK-MEL-28 melanoma
# 786-0 renal = tested on: 786-0 renal
# OVCAR-5 ovarian = tested on: OVCAR-5 ovarian
# SF-268 CNS = tested on: SF-268 CNS
# TK-10 renal = tested on: TK-10 renal
# SN12C renal = tested on: SN12C renal
# NCI-H460 lung = tested on: NCI-H460 lung
# EKVX NSCLC = tested on: EKVX NSCLC
# IGROV1 ovarian = tested on: IGROV1 ovarian
# HOP-92 NSCLC = tested on: HOP-92 NSCLC
# A549 NSCLC = tested on: A549 NSCLC
# MDA-MB-231 breast = tested on: MDA-MB-231 breast
# HT29 colon = tested on: HT29 colon
# SF-295 CNS = tested on: SF-295 CNS
# RPMI-8226 leukemia = tested on: RPMI-8226 leukemia
# HS 578T breast = tested on: HS 578T breast
# SF-539 CNS = tested on: SF-539 CNS
# A498 renal = tested on: A498 renal
# OVCAR-3 ovarian = tested on: OVCAR-3 ovarian
# MALME-3M melanoma = tested on: MALME-3M melanoma
# DU-145 prostate = tested on: DU-145 prostate
# HCT-116 colon = tested on: HCT-116 colon
# NCI-H522 lung = tested on: NCI-H522 lung
# RXF 393 renal = tested on: RXF 393 renal
# SK-OV-3 ovarian = tested on: SK-OV-3 ovarian
# SW-620 colon = tested on: SW-620 colon
# MCF7 breast = tested on: MCF7 breast
# LOX IMVI melanoma = tested on: LOX IMVI melanoma
# MDA-N = tested on: MDA-N
# UACC-62 melanoma = tested on: UACC-62 melanoma
# SK-MEL-2 melanoma = tested on: SK-MEL-2 melanoma
# MOLT-4 leukemia = tested on: MOLT-4 leukemia
# HL-60(TB) leukemia = tested on: HL-60(TB) leukemia
# SK-MEL-5 melanoma = tested on: SK-MEL-5 melanoma
# HOP-62 NSCLC = tested on: HOP-62 NSCLC
# NCI/ADR-RES ovarian = tested on: NCI/ADR-RES ovarian
# OVCAR-4 ovarian = tested on: OVCAR-4 ovarian
# COLO 205 colon = tested on: COLO 205 colon
# K-562 leukemia = tested on: K-562 leukemia
# CAKI-1 renal = tested on: CAKI-1 renal
# MDA-MB-435 = tested on: MDA-MB-435
# OVCAR-8 ovarian = tested on: OVCAR-8 ovarian
# SR leukemia = tested on: SR leukemia
# NCI-H23 lung = tested on: NCI-H23 lung
# CCRF-CEM leukemia = tested on: CCRF-CEM leukemia
# M14 melanoma = tested on: M14 melanoma
# SNB-19 CNS = tested on: SNB-19 CNS
structure (smiles),measurement,setting,value
CN(/N=C(\C(=O)O)c1ccccc1)C1=NCCN1,TGI,HCT-15 colon,> 100 µM
same,TGI,ACHN renal,> 100 µM
same,TGI,KM12 colon,> 100 µM
same,TGI,T-47D breast,> 100 µM
same,TGI,UO-31 renal,> 100 µM
same,TGI,PC-3 prostate,> 100 µM
same,TGI,HCC-2998 colon,> 100 µM
same,TGI,SNB-75 CNS,> 100 µM
same,TGI,BT-549 breast,> 100 µM
same,TGI,NCI-H226 lung,> 100 µM
same,TGI,UACC-257 melanoma,> 100 µM
same,TGI,SK-MEL-28 melanoma,> 100 µM
same,TGI,786-0 renal,> 100 µM
same,TGI,OVCAR-5 ovarian,> 100 µM
same,TGI,SF-268 CNS,> 100 µM
same,TGI,TK-10 renal,> 100 µM
same,TGI,SN12C renal,> 100 µM
same,TGI,NCI-H460 lung,> 100 µM
same,TGI,EKVX NSCLC,> 100 µM
same,TGI,IGROV1 ovarian,> 100 µM
same,TGI,HOP-92 NSCLC,> 100 µM
same,TGI,A549 NSCLC,> 100 µM
same,TGI,MDA-MB-231 breast,> 100 µM
same,TGI,HT29 colon,> 100 µM
same,TGI,SF-295 CNS,> 100 µM
same,TGI,RPMI-8226 leukemia,> 100 µM
same,TGI,HS 578T breast,> 100 µM
same,TGI,SF-539 CNS,> 100 µM
same,TGI,A498 renal,> 100 µM
same,TGI,OVCAR-3 ovarian,> 100 µM
same,TGI,MALME-3M melanoma,> 100 µM
same,TGI,DU-145 prostate,> 100 µM
same,TGI,HCT-116 colon,> 100 µM
same,TGI,NCI-H522 lung,> 100 µM
same,TGI,RXF 393 renal,> 100 µM
same,TGI,SK-OV-3 ovarian,> 100 µM
same,TGI,SW-620 colon,> 100 µM
same,TGI,MCF7 breast,> 100 µM
same,TGI,LOX IMVI melanoma,> 100 µM
same,TGI,MDA-N,> 100 µM
same,TGI,UACC-62 melanoma,> 100 µM
same,TGI,SK-MEL-2 melanoma,> 100 µM
same,TGI,MOLT-4 leukemia,> 100 µM
same,TGI,HL-60(TB) leukemia,> 100 µM
same,TGI,SK-MEL-5 melanoma,> 100 µM
same,TGI,HOP-62 NSCLC,> 100 µM
same,TGI,NCI/ADR-RES ovarian,> 100 µM
same,TGI,OVCAR-4 ovarian,> 100 µM
same,TGI,COLO 205 colon,> 100 µM
same,TGI,K-562 leukemia,> 100 µM
same,TGI,CAKI-1 renal,> 100 µM
same,TGI,MDA-MB-435,> 100 µM
same,TGI,OVCAR-8 ovarian,> 100 µM
same,TGI,SR leukemia,> 100 µM
same,TGI,NCI-H23 lung,> 100 µM
same,TGI,CCRF-CEM leukemia,> 100 µM
COc1ccc(Oc2ccc3cc4c(cc3c2O)OCO4)c2cc(C)oc12,TGI,HCT-15 colon,> 100 µM
same,TGI,ACHN renal,> 100 µM
same,TGI,KM12 colon,> 100 µM
same,TGI,T-47D breast,> 100 µM
same,TGI,UO-31 renal,> 100 µM
same,TGI,PC-3 prostate,> 100 µM
same,TGI,HCC-2998 colon,49.8 µM
same,TGI,SNB-75 CNS,> 100 µM
same,TGI,BT-549 breast,71.4 µM
same,TGI,NCI-H226 lung,83.8 µM
same,TGI,UACC-257 melanoma,61.1 µM
same,TGI,SK-MEL-28 melanoma,> 100 µM
same,TGI,786-0 renal,> 100 µM
same,TGI,OVCAR-5 ovarian,> 100 µM
same,TGI,SF-268 CNS,> 100 µM
same,TGI,TK-10 renal,93.7 µM
same,TGI,SN12C renal,> 100 µM
same,TGI,M14 melanoma,78.9 µM
same,TGI,NCI-H460 lung,64.3 µM
same,TGI,EKVX NSCLC,> 100 µM
same,TGI,IGROV1 ovarian,> 100 µM
same,TGI,HOP-92 NSCLC,70.1 µM
same,TGI,A549 NSCLC,> 100 µM
same,TGI,MDA-MB-231 breast,> 100 µM
same,TGI,HT29 colon,55.3 µM
same,TGI,SF-295 CNS,> 100 µM
same,TGI,RPMI-8226 leukemia,45.2 µM
same,TGI,HS 578T breast,> 100 µM
same,TGI,SF-539 CNS,> 100 µM
same,TGI,A498 renal,> 100 µM
same,TGI,OVCAR-3 ovarian,> 100 µM
same,TGI,MALME-3M melanoma,74.8 µM
same,TGI,DU-145 prostate,> 100 µM
same,TGI,HCT-116 colon,> 100 µM
same,TGI,NCI-H522 lung,93.7 µM
same,TGI,RXF 393 renal,45.1 µM
same,TGI,SK-OV-3 ovarian,> 100 µM
same,TGI,SW-620 colon,> 100 µM
same,TGI,MCF7 breast,> 100 µM
same,TGI,LOX IMVI melanoma,43.9 µM
same,TGI,MDA-N,> 100 µM
same,TGI,UACC-62 melanoma,> 100 µM
same,TGI,SK-MEL-2 melanoma,47.4 µM
same,TGI,SNB-19 CNS,> 100 µM
same,TGI,MOLT-4 leukemia,65.3 µM
same,TGI,HL-60(TB) leukemia,83.9 µM
same,TGI,SK-MEL-5 melanoma,32.3 µM
same,TGI,HOP-62 NSCLC,> 100 µM
same,TGI,NCI/ADR-RES ovarian,78.8 µM
same,TGI,OVCAR-4 ovarian,> 100 µM
same,TGI,COLO 205 colon,72.3 µM
same,TGI,K-562 leukemia,81.4 µM
same,TGI,CAKI-1 renal,> 100 µM
same,TGI,MDA-MB-435,75.1 µM
same,TGI,OVCAR-8 ovarian,> 100 µM
same,TGI,SR leukemia,93.3 µM
same,TGI,NCI-H23 lung,> 100 µM
same,TGI,CCRF-CEM leukemia,89.2 µM
